Assay results as given in ChEMBL document CHEMBL1122011, “Synthesis of N-(carbonylamino)-1,2,3,6-tetrahydropyridines with analgesic, antiinflammatory, and hyperglycemic activity” (J Med Chem, 1982).

Columns and labels:
Mus musculus [1] = test: Analgesic activity in mice using phenylquinone writhing test at 30 mg/kg, sc dose; assay type: functional; conditions: route subcutaneous
Rattus norvegicus [2] = test: % change in blood glucose concentration after 2 hr post treatment at 100 mg/kg, po; assay type: functional; parameters: unit: %
Rattus norvegicus [3] = test: (§1) % change in blood glucose concentration after 4 hr post treatment at 100 mg/kg, po; assay type: functional; parameters: unit: %
Mus musculus [4] = test: Analgesic activity in mice using phenylquinone writhing test at 3mg/kg, sc dose; assay type: functional
Mus musculus [5] = test: Analgesic activity in mice using phenylquinone writhing test at 3 mg/kg, sc dose. 0.6 mg/kg Noxolone was prior to compound injection; assay type: functional
Mus musculus [6] = test: Effective dose in mouse hotplate test at 55+/-0.5 degree Centigrade after 30 min of dosing; assay type: functional; conditions: 0.5 h
Mus musculus [7] = test: Analgesic activity in mice using phenylquinone writhing test at 14.5 mg/kg, sc dose; assay type: functional; conditions: route subcutaneous
Rattus norvegicus [8] = test: as §1; assay type: functional
Rattus norvegicus [9] = test: Inhibitory against carrageenan induced paw edema in rat at 128 mg/kg, sc dose after 3h; assay type: functional; conditions: route subcutaneous
Rattus norvegicus [10] = test: Inhibitory against carrageenan induced paw edema in rat at 128 mg/kg, sc dose after 5 hr; assay type: functional; conditions: route subcutaneous
Mus musculus [11] = test: Analgesic activity in mice using phenylquinone writhing test at 50 mg/kg, sc dose; assay type: functional; conditions: route subcutaneous
Mus musculus [12] = test: Analgesic activity in mice using phenylquinone writhing test at 0.00075 mg/kg, sc dose; assay type: functional; conditions: route subcutaneous
Rattus norvegicus [13] = test: % change in blood glucose concentration after 2 hr post treatment at 50 mg/kg, po; assay type: functional
Rattus norvegicus [14] = test: % change in blood glucose concentration after 4 hr post treatment at 60 mg/kg, po; assay type: functional
Mus musculus [15] = test: Analgesic activity in mice using phenylquinone writhing test at 56 mg/kg, sc dose; assay type: functional; conditions: route subcutaneous
Mus musculus [16] = test: Analgesic activity in mice using phenylquinone writhing test at 16.5 mg/kg, sc dose; assay type: functional; conditions: route subcutaneous
Rattus norvegicus [17] = test: % change in blood glucose concentration after 2 hr post treatment at 36.5 mg/kg, po; assay type: functional
Rattus norvegicus [18] = test: % change in blood glucose concentration after 4 hr post treatment at 53 mg/kg, po; assay type: functional
Rattus norvegicus [19] = test: Inhibitory against carrageenan induced paw edema in rat at 120 mg/kg, sc dose after 3h; assay type: functional; conditions: route subcutaneous
Rattus norvegicus [20] = test: Inhibitory against carrageenan induced paw edema in rat at 120 mg/kg, sc dose after 5 hr; assay type: functional; conditions: route subcutaneous
Mus musculus [21] = organism: Mus musculus; test: animal or person; conditions: sc, read-out: Inhibition
Description: Analgesic activity in mice using phenylquinone writhing test at 0.038 mg/kg, sc dose

Mus musculus [22] = test: Inhibitory against carrageenan induced paw edema in mice at 128 mg/kg, sc dose after 3h; assay type: functional; conditions: route subcutaneous
Mus musculus [23] = test: Analgesic activity in mice using phenylquinone writhing test at 128 mg/kg when administered subcutaneously; assay type: functional; conditions: sc, route subcutaneous
Rattus norvegicus [24] = test: % change in blood glucose concentration after 2 hr post treatment at 128 mg/kg, po; assay type: functional
Rattus norvegicus [25] = test: % change in blood glucose concentration after 4 hr post treatment at 128 mg/kg, po; assay type: functional
Mus musculus [26] = test: Inhibitory against carrageenan induced paw edema in mice at 128 mg/kg, sc dose after 5 hr; assay type: functional; conditions: route subcutaneous
Mus musculus [27] = test: Inhibitory against carrageenan induced paw edema in mice at 12 mg/kg, sc dose after 3h; assay type: functional; conditions: route subcutaneous
Mus musculus [28] = test: Inhibitory against carrageenan induced paw edema in mice at 12 mg/kg, sc dose after 5 hr; assay type: functional; conditions: route subcutaneous
Mus musculus [29] = test: Analgesic activity in mice using phenylquinone writhing test at 0.0075 mg/kg, sc dose; assay type: functional; conditions: route subcutaneous
Mus musculus [30] = test: Analgesic activity in mice using phenylquinone writhing test at 10 mg/kg, sc dose; assay type: functional; conditions: route subcutaneous
Mus musculus [31] = test: Analgesic activity in mice using phenylquinone writhing test at 10 mg/kg, sc dose. 2 mg/kg Noxolone was prior to compound injection; assay type: functional
Rattus norvegicus [32] = test: % change in blood glucose concentration after 2 hr post treatment at 17 mg/kg, po; assay type: functional
Rattus norvegicus [33] = test: % change in blood glucose concentration after 4 hr post treatment at 30 mg/kg, po; assay type: functional
Mus musculus [34] = test: Analgesic activity in mice using phenylquinone writhing test at 25 mg/kg, sc dose; assay type: functional; conditions: route subcutaneous
Rattus norvegicus [35] = test: % change in blood glucose concentration after 2 hr post treatment at 41 mg/kg, po; assay type: functional
Mus musculus [36] = test: Analgesic activity in mice using phenylquinone writhing test at 120 mg/kg, sc dose; assay type: functional; conditions: route subcutaneous
Mus musculus [37] = test: Analgesic activity in mice using phenylquinone writhing test at 60 mg/kg, sc dose; assay type: functional; conditions: route subcutaneous

Row | Compound | inhibition in vivo at 30 mg/kg (Mus musculus [1]) | Hyperglycemic activity (Rattus norvegicus [2]) | Hyperglycemic activity (Rattus norvegicus [3]) | other results
1 | O=C(NN1CC=CCC1)c1cccs1 | 77% | 116 | 64 | –
2 | CCOC(=O)NN1CC=CCC1 | 99% | 27 | 91 | inhibition in vivo at 3 mg/kg (Mus musculus [4]): 85.6%; Inhibition (Mus musculus [5]): 86%; ED50 (Mus musculus [6]): 19.5 mg/kg
3 | O=C(Cc1cccnc1)NN1CC=CCC1 | – | 0 | – | inhibition in vivo at 14.5 mg/kg (Mus musculus [7]): 50%; Hypoglycemic activity (Rattus norvegicus [8]): -6; inhibition in vivo at 128 mg/kg (Rattus norvegicus [9]): 50%; inhibition in vivo at 128 mg/kg (Rattus norvegicus [10]): 50%
4 | CC(=O)Oc1ccccc1C(=O)O [ASPIRIN] | – | – | – | inhibition in vivo at 50 mg/kg (Mus musculus [11]): 50%
5 | O=C(NN1CC=CCC1)C1CCCCCC1 | 98% | 100 | 82 | inhibition in vivo at 0.00075 mg/kg (Mus musculus [12]): 50%; Hyperglycemic activity (Rattus norvegicus [13]): 50; Hyperglycemic activity (Rattus norvegicus [14]): 50
6 | CC(=O)NN1CC=CCC1 | 99% | 35 | 36 | –
7 | CCC(=O)O[C@](Cc1ccccc1)(c1ccccc1)[C@H](C)CN(C)C [PROPOXYPHENE] | – | – | – | inhibition in vivo at 56 mg/kg (Mus musculus [15]): 50%
8 | Cn1cccc1C(=O)NN1CC=CCC1 | 90% | 35 | 25 | –
9 | O=C(NN1CC=CCC1)C1CCCCC1 | – | – | – | inhibition in vivo at 16.5 mg/kg (Mus musculus [16]): 50%; Hyperglycemic activity (Rattus norvegicus [17]): 50; Hyperglycemic activity (Rattus norvegicus [18]): 50; inhibition in vivo at 120 mg/kg (Rattus norvegicus [19]): 50%; inhibition in vivo at 120 mg/kg (Rattus norvegicus [20]): 84%
10 | O=C(NN1CC=CCC1)c1cccc(C(=O)NN2CC=CCC2)n1 | 60% | -8 | 10 | –
11 | O=C(NN1CC=CCC1)C1CCCC1 | 98% | 54 | 22 | –
12 | CN1CC[C@]23c4c5ccc(O)c4O[C@H]2[C@@H](O)C=C[C@H]3[C@H]1C5 | – | – | – | inhibition in vivo at 0.038 mg/kg (Mus musculus [21]): 50%
13 | O=C(NN1CC=CCC1)c1cccc[n+]1[O-] | – | – | – | inhibition in vivo at 128 mg/kg (Mus musculus [22]): 34%; inhibition in vivo at 128 mg/kg (Mus musculus [23]): 55%; Hypoglycemic activity (Rattus norvegicus [24]): <20; Hypoglycemic activity (Rattus norvegicus [25]): <20; inhibition in vivo at 128 mg/kg (Mus musculus [26]): 0%
14 | CC(C)(C)C(=O)NN1CC=CCC1 | 100% | 70 | 101 | –
15 | O=C(COc1cccc2ccccc12)NN1CC=CCC1 | 76% | 9 | 14 | –
16 | COc1ccc2c(c1)c(CC(=O)O)c(C)n2C(=O)c1ccc(Cl)cc1 [INDOMETHACIN] | – | – | – | inhibition in vivo at 12 mg/kg (Mus musculus [27]): 17%; inhibition in vivo at 12 mg/kg (Mus musculus [28]): 83%
17 | O=C(NN1CC=CCC1)c1ccco1 | 99% | 181 | 182 | inhibition in vivo at 0.0075 mg/kg (Mus musculus [29]): 50%; inhibition in vivo at 10 mg/kg (Mus musculus [30]): 98.4%; Inhibition (Mus musculus [31]): 99.2%; Hyperglycemic activity (Rattus norvegicus [32]): 50; Hyperglycemic activity (Rattus norvegicus [33]): 50
18 | O=C(COc1ccccc1)NN1CC=CCC1 | – | – | – | inhibition in vivo at 25 mg/kg (Mus musculus [34]): 50%; Hyperglycemic activity (Rattus norvegicus [35]): 50; Hyperglycemic activity (Rattus norvegicus [18]): 50; inhibition in vivo at 120 mg/kg (Rattus norvegicus [19]): 83%; inhibition in vivo at 120 mg/kg (Rattus norvegicus [20]): 80%
19 | O=C(NN1CC=CCC1)C1CC1 | 100% | 66 | 111 | –
20 | O=C(CCc1ccccc1)NN1CC=CCC1 | – | 27 | 25 | inhibition in vivo at 120 mg/kg (Mus musculus [36]): 42%; inhibition in vivo at 120 mg/kg (Rattus norvegicus [19]): 83%; inhibition in vivo at 120 mg/kg (Rattus norvegicus [20]): 83%
21 | O=C(NN1CC=CCC1)C12C[C@H]3C[C@@H](C1)C[C@@H](C2)C3 | 86% | 33 | 22 | –
22 | O=C(Cc1ccc2c(c1)OCO2)NN1CC=CCC1 | – | 7 | 21 | inhibition in vivo at 60 mg/kg (Mus musculus [37]): 80%; inhibition in vivo at 120 mg/kg (Rattus norvegicus [19]): 0%; inhibition in vivo at 120 mg/kg (Rattus norvegicus [20]): 0%
